Measured values taken from patent publication US20110021541A1, “INHIBITORS OF HUMAN PHOSPHATIDYL-INOSITOL 3-KINASE DELTA” (priority 2007, published 2011).

Key:
[1] = target: T1, PI3Kδ (Homo sapiens, UniProt O00329); assay: PI3Kδ biochemical assay (HTS and selectivity assay protocol, [32P]ATP / PIP2 liposomes); conditions: Table 1, in vitro activity data for selected compounds; read-out: In Vitro I-50
T1 construct: FLAG; His tag (vector pFastbac HTb); made in house; host or cells: Sf21 insect cells (baculovirus, BAC-TO-BAC HT)
T1 sequence (O00329 whole entry): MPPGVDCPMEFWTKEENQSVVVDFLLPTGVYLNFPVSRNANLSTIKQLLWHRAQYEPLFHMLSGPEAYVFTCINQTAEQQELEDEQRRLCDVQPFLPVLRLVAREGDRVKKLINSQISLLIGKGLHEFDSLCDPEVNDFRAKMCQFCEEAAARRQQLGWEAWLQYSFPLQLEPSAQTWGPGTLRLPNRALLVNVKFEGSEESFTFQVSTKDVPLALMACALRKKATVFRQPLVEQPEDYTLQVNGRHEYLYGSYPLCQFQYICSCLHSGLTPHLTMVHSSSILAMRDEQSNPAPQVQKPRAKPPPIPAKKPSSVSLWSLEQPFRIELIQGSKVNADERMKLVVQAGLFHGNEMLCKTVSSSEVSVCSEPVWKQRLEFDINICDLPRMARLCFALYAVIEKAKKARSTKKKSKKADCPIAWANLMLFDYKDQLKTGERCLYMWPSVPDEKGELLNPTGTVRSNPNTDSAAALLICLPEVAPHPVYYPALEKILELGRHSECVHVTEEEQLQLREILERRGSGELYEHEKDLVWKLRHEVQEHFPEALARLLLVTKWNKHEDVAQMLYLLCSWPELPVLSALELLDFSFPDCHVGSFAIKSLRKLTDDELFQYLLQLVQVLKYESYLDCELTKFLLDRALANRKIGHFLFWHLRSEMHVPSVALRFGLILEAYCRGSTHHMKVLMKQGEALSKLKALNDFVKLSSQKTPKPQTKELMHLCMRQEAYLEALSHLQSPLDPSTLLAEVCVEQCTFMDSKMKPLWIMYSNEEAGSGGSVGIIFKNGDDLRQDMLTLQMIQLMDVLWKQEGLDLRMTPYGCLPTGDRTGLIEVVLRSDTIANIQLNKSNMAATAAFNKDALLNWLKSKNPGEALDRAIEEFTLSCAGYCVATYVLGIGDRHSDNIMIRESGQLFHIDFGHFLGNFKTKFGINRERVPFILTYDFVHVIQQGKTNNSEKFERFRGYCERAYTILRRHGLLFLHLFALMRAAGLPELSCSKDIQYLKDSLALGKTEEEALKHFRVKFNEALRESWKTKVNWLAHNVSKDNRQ
T1 sequence (P27986 whole entry partner): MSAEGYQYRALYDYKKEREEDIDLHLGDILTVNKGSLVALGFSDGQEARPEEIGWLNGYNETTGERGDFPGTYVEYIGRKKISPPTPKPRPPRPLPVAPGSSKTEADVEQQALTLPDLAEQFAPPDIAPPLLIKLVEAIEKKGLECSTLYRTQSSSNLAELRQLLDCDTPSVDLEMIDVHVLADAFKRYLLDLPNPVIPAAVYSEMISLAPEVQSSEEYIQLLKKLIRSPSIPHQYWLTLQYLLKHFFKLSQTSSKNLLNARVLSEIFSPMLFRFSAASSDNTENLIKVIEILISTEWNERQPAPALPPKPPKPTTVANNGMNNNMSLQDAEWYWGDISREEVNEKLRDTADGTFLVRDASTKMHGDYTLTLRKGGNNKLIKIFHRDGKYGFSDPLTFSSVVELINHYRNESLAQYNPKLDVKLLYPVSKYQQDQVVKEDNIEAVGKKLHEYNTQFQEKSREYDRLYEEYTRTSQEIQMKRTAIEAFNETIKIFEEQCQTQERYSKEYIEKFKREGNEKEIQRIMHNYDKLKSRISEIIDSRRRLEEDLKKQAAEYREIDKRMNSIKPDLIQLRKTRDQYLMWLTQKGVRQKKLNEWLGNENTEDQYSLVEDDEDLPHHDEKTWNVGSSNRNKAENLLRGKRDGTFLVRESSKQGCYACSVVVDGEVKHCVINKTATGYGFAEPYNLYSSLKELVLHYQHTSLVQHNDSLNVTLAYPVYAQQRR
Experimental: The 3× substrate for the HTS contained 0.6 mM Na2ATP, 0.10 mCi/mL γ-[^32P]ATP (NEN, Pittsburgh, Pa.), 6 μM PIP2/PS liposomes (Avanti Polar Lipids, Inc., […].), in 20 mM HEPES, pH 7.4.
Subsequent selectivity assays were done similarly using the same 3× substrate stocks except they contained 0.05 mCi/mL γ[^32P]ATP and 3 mM PIP2. Subsequent selectivity assays also used the same 3× enzyme stocks, except they now contained 3 nM of any given PI3K isoform.
For all selectivity assays, the test compounds were weighed out and dissolved into 10-50 mM stocks in 100% DMSO (depending on their respective solubilities) and stored at −20° C. Compounds were thawed (to room temperature or 37° C.), diluted to 300 μM in water from which a 3-fold dilution series into water was done. From these dilutions, 20 μL was added into the assay wells alongside water blanks used for the enzyme (positive) control and the no enzyme (background) control.

[2] = system: basophils; assay: Basophil histamine release assay; type: cell-based; conditions: highest concentration (10,000 nM)
Experimental: Assessment of the effect of a compound of the invention on basophil function is tested using a conventional histamine release assay, generally in accordance with the method described in Miura et al., J Immunol, 162:4198-206 (1999). Briefly, enriched basophils are preincubated with test compounds at several concentrations from 0.1 nM to 1,000 nM for 10 min at 37° C. Then, polyclonal goat antihuman IgE (0.1 μg/mL) or fMLP is added, and allowed to incubate for an additional 30 min Histamine released into the supernatant is measured using an automated fluorometric technique.

| SMILES | IC50 [1] [nM] | inhibition at 10 µM [2] [%] |
| --- | --- | --- |
| CC(c1nc2c(c(Br)nn2C)c(=O)n1-c1ccccc1)n1cnc2c(N)ncnc21 (stereo not drawn) [Compound 1, 6-[1-(6-Amino-purin-9-yl)-ethyl]-3-bromo-1-methyl-5-phenyl-1,5-dihydro-pyrazolo[3,4-d]pyrimidin-4-one] | 665 | – |
| CC(Sc1ncnc2[nH]cnc12)c1nc2c(c(Br)nn2C)c(=O)n1-c1ccccc1 (stereo not drawn) [Compound 2, 3-Bromo-1-methyl-5-phenyl-6-[1-(9H-purin-6-ylsulfanyl)-ethyl]-1,5-dihydro-pyrazolo[3,4-d]pyrimidin-4-one] | 6000 | – |
| O=c1cc(N2CCOCC2)oc2c(-c3ccccc3)cccc12 [LY294002] | – | ~100 |

Continued, in another order:

| IC50 [1] [nM] | SMILES | inhibition at 10 µM [2] [%] |
| --- | --- | --- |
| 1200 | Cc1noc2nc(CSc3ncnc4[nH]cnc34)n(-c3ccccc3)c(=O)c12 [Compound 4, 3-Methyl-5-phenyl-6-(9H-purin-6-ylsulfanylmethyl)-5H-isoxazolo[5,4-d]pyrimidin-4-one] | – |
| 6400 | Cc1noc2nc(Cn3cnc4c(N)ncnc43)n(-c3ccccc3)c(=O)c12 [Compound 5, 6-(6-Amino-purin-9-ylmethyl)-3-methyl-5-phenyl-5H-is oxazolo[5,4-d]pyrimidin-4-one] | – |
| 665 | CC(c1nc2cccnc2c(=O)n1-c1ccccc1)n1cnc2c(N)ncnc21 (stereo not drawn) [Compound 11] | – |
